Assay results as given in patent publication US7375096B1, “Method of preparing a supramolecular complex containing a therapeutic agent and a multi-dimensional polymer network” (California Institute of Technology, priority 1998, dated 2008).

Key:
[1] = system: BHK-21 cells
Description: BHK-21 cells were plated in 24 well plates at a cell density of 60,000 cells/well 24 hours before transfection. […] Media solution containing the DNA/polymer complexes was added to cultured cells and replaced with fresh media after 24 hours of incubation at 37° C. The cells were lysed 48 hours after transfection. […] Cell lysate was also used to determine cell viability by the Lowry protein assay.

[2] = system: DNA; assay: Pentalysine DNA binding with crosslinker DTBP and reducing agent TCEP (agarose gel)
Description: Pentalysine was added to DNA for 15 minutes. Crosslinker DTBP was then added to the solution mixture for over 60 minutes. TCEP was added and an agarose gel was run after 30 minutes. […] Thus, crosslinking with DTBP increased the affinity of pentalysine to DNA.

binding to DNA [2] | Substance | toxicity (cell viability, Lowry protein assay) [1]
 | β-Cyclodextrin(cystamine)-DMS copolymer [copolymer 15] | No toxicity was observed
not strong enough to bind to the DNA | Pentalysine | 
